Activity calls are given as the source filed them. The calls are words filed in the database; no cut-off is given here.
Legend:
[1] = test system: LAPC4; assay: Induction of apoptosis in human LAPC4 cells assessed as cleaved caspase-7 expression at 2 to 10 uM incubated for 48 to 72 hrs; assay type: functional, cell-based; settings: dose 2-10 µM, time 48-72 hrs
[2] = molecular target: T1, Androgen receptor (Homo sapiens) (UniProt P10275); assay: Antagonist activity at AR in human LNCaP cells assessed as reduction in Nkx3.1 expression at 2 to 10 uM incubated for 72 hrs by Western blotting analysis; assay type: cell-based; design: scale not given: the % may be the effect or the level left; settings: filed as antagonist, dose 2-10 µM
T1 sequence (whole entry): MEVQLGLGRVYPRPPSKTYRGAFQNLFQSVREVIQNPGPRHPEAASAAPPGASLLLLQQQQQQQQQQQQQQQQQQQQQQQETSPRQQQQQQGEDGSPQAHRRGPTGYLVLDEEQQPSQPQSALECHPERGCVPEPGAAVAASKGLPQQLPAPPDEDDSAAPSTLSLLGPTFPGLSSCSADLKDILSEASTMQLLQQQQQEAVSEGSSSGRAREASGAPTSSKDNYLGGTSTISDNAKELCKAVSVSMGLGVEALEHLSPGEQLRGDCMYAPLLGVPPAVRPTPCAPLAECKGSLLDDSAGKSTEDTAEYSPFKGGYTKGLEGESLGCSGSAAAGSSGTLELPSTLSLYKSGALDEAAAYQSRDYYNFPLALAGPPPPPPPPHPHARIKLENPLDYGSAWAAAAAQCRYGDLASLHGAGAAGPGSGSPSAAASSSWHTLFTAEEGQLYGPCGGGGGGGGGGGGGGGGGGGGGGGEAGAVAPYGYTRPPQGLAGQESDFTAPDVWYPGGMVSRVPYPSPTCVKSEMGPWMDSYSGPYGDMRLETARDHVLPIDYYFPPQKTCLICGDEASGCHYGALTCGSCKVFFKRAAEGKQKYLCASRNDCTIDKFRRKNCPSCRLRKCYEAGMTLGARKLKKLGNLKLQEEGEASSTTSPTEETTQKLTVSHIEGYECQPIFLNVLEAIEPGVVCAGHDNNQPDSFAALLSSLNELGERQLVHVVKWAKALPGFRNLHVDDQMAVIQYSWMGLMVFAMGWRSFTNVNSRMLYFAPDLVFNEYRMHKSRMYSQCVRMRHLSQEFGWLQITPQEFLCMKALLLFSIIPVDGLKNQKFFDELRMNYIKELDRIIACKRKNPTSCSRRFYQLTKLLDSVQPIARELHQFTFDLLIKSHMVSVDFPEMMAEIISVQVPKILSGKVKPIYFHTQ

[3] = molecular target: T1, Androgen receptor (Homo sapiens); assay: Antagonist activity at AR in human LNCaP cells assessed as reduction in PSA expression at 2 to 10 uM incubated for 72 hrs by Western blotting analysis; assay type: cell-based; design: scale not given: the % may be the effect or the level left; settings: filed as antagonist, dose 2-10 µM
[4] = molecular target: T1, Androgen receptor (Homo sapiens); assay: Antagonist activity at AR in human 22Rv1 cells incubated for 24 hrs in presence of R1881 by Western blotting analysis; assay type: cell-based; settings: filed as antagonist
[5] = test system: CWR22R; assay: Cytotoxicity against human 22Rv1 cells assessed as cell viability at 20 uM incubated for 72 hrs by resazurin dye based microplate reader assay; assay type: functional; settings: read-out: Activity
[6] = test system: LAPC4; assay: Antiproliferative activity against human LAPC4 cells assessed as viable cells at 2 to 10 uM incubated for 24 to 48 hrs by resazurin dye based assay; assay type: functional; settings: dose 2-10 µM, time 24-48 hrs
[7] = molecular target: T1, Androgen receptor (Homo sapiens); assay: Antagonist activity at AR transcription in human LAPC4 cells assessed as reduction in AR mRNA expression at 10 uM incubated for 24 hrs in presence of R1881 by qPCR analysis; assay type: cell-based; settings: filed as antagonist
[8] = test system: LAPC4; assay: Reversal of AR degradation in human LAPC4 cells at 10 to 20 uM preincubated for 1 hr followed by bav-degalutamide addition and measured after 4 hrs; assay type: functional, cell-based; settings: dose 10-20 µM, time 5.0 hrs
[9] = molecular target: T1, Androgen receptor (Homo sapiens); assay: Antagonist activity at AR transcription in human LAPC4 cells assessed as reduction in PSA mRNA expression at 10 uM incubated for 24 hrs in presence of R1881 by qPCR analysis; assay type: cell-based; settings: filed as antagonist
[10] = molecular target: T1, Androgen receptor (Homo sapiens); assay: Antagonist activity at AR in human LAPC4 cells assessed as reduction in PSA expression at 10 uM incubated for 24 hrs in presence of R1881 by Western blotting analysis; assay type: cell-based; settings: filed as antagonist
[11] = molecular target: T1, Androgen receptor (Homo sapiens); assay: Antagonist activity at AR in human LNCaP-abl cells assessed as reduction in phosphorylation at S81 at 10 uM incubated for 24 hrs in presence of R1881 by Western blotting analysis; assay type: cell-based; settings: filed as antagonist
[12] = test system: LAPC4; assay: Inhibition of colony formation in human LAPC4 cells at 5 uM incubated for 10 days by crystal violet staining based assay; assay type: functional, cell-based; settings: time 10.0 day
[13] = test system: DU-145; assay: Induction of cell cycle arrest in human DU-145 cells assessed as reduction S phase cells incubated for 48 hrs; assay type: functional, cell-based
[14] = molecular target: T1, Androgen receptor (Homo sapiens); assay: Antagonist activity at AR in human LNCaP-abl cells assessed as reduction in PSA expression at 10 uM incubated for 24 hrs in presence of R1881 by Western blotting analysis; assay type: cell-based; settings: filed as antagonist
[15] = molecular target: T1, Androgen receptor (Homo sapiens); assay: Antagonist activity at AR transcription in human 22Rv1 cells assessed as reduction in PSA mRNA expression at 10 uM incubated for 24 hrs in presence of R1881 by qPCR analysis; assay type: cell-based; settings: filed as antagonist
[16] = test system: LAPC4; assay: Induction of cell cycle arrest in human LAPC4 cells assessed as reduction S phase cells incubated for 48 hrs; assay type: functional, cell-based
[17] = test system: LAPC4; assay: Induction of apoptosis in human LAPC4 cells assessed as PARP-1 expression at 2 to 10 uM incubated for 48 to 72 hrs; assay type: functional, cell-based; settings: dose 2-10 µM, time 48-72 hrs
[18] = molecular target: T1, Androgen receptor (Homo sapiens); assay: Antagonist activity at AR in human LAPC4 cells incubated for 24 hrs in presence of R1881 by Western blotting analysis; assay type: cell-based; settings: filed as antagonist, dose 1.25-10 µM
[19] = molecular target: T1, Androgen receptor (Homo sapiens); assay: Binding affinity to His6 tagged recombinant human AR LBD expresssed in Escherichia coli BL21(DE3) cells by MST assay; settings: filed as antagonist
[20] = test system: CWR22R; assay: Induction of cell cycle arrest in human 22Rv1 cells assessed as reduction S phase cells incubated for 48 hrs; assay type: functional, cell-based
[21] = test system: LAPC4; assay: Inhibition of colony formation in human LAPC4 cells at 10 uM incubated for 10 days by crystal violet staining based assay; assay type: functional; settings: LAPC4, 240 h, time 10 day
[22] = test system: LAPC4; assay: Antiproliferative activity against human LAPC4 cells; assay type: functional; settings: time 72 hrs
[23] = test system: DU-145; assay: Cytotoxicity against human DU-145 cells assessed as cell viability at 20 uM incubated for 72 hrs by resazurin dye based microplate reader assay; assay type: functional; settings: read-out: Activity
[24] = molecular target: T1, Androgen receptor (Homo sapiens); assay: Antagonist activity at AR in human LAPC4 cells assessed as reduction in Nkx3.1 expression at 10 uM incubated for 24 hrs in presence of R1881 by Western blotting analysis; assay type: cell-based; settings: filed as antagonist
[25] = test system: LAPC4; assay: Induction of apoptosis in human LAPC4 cells assessed as cleaved caspase-3 expression at 2 to 10 uM incubated for 48 to 72 hrs; assay type: functional, cell-based; settings: dose 2-10 µM, time 48-72 hrs
[26] = test system: LAPC4; assay: Cytotoxicity against human LAPC4 cells assessed as cell viability at 20 uM incubated for 72 hrs by resazurin dye based microplate reader assay; assay type: functional; settings: read-out: Activity
[27] = test system: LAPC4; assay: Antiproliferative activity against human LAPC4 cells assessed as decrease in […] at 2 to 10 uM incubated for 24 to 72 hrs by resazurin dye based assay; assay type: functional, cell-based; settings: dose 2-10 µM, time 24-72 hrs
[28] = molecular target: T2, Androgen receptor (Homo sapiens, UniProt P10275); assay: Antagonist activity at AR transcription in human 22Rv1 cells incubated for 24 hrs in presence of R1881; assay type: cell-based
T2 sequence (P10275 whole entry): T1 sequence (whole entry)

[29] = molecular target: T1, Androgen receptor (Homo sapiens); assay: Antagonist activity at AR in human LNCaP cells incubated for 24 hrs in presence of R1881 by Western blotting analysis; assay type: cell-based; settings: filed as antagonist

## Cc1c2c(nn1-c1ccc(F)cc1)C[C@@H]1CC[C@@H]3[C@H](CC[C@]4(C)[C@@H](O)CC[C@@H]34)[C@@]1(C)C2
[1]
  Activity: Active
[2]
  Activity: 100%
[3]
  Activity: 100%
[4]
  Activity: Dose-Dependent Effect
[5]
  viability at 20 µM: 26%
[6]
  Activity: >80%
[7]
  Activity: Active
[8]
  Activity: Active
[9]
  Activity: Active
[10]
  Activity: Active
[11]
  Activity: Active
[12]
  inhibition: Active
[13]
  Activity: inactive
[14]
  Activity: Active
[15]
  Activity: Active
[16]
  Activity: Active
[17]
  Activity: Active
[18]
  Activity: Dose-Dependent Effect
[19]
  Activity: Active
[20]
  Activity: Active
[21]
  inhibition at 10 µM: 3%
[22]
  GI50: 7.9 µM
[23]
  viability at 20 µM: ≥ 100%
[24]
  Activity: Active
[25]
  Activity: Active
[26]
  viability at 20 µM: 38%
[27]
  Activity: Active
[28]
  IC50: 1180 nM
[29]
  Activity: Dose-Dependent Effect
